# Assay results taken from ChEMBL document CHEMBL1152578, “Inhibition of ribonuclease A by nucleoside-dibasic acid conjugates” (Bioorg Med Chem, 2009).
# The source made the active and inactive calls. The rule behind the calls is not given here.
# Legend:
# Ribonuclease pancreatic = target: T1, Ribonuclease pancreatic (Homo sapiens, UniProt P07998); assay: Inhibition of RNase A using dixon plot by spectrophotometric method
# T1 sequence (P07998 whole entry): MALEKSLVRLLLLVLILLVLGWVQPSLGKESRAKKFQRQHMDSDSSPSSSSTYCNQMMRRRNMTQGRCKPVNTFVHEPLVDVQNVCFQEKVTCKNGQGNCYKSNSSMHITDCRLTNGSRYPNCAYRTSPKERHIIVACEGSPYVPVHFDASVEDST
# [1] = target: T2, Ribonuclease pancreatic (Homo sapiens) (UniProt P07998); assay: Inhibition of RNase A at 1.5 mM by precipitation assay
# T2 sequence (whole entry): T1 sequence (P07998 whole entry)
# [2] = target: T2, Ribonuclease pancreatic (Homo sapiens); assay: Inhibition of RNase A assessed as degradation of tRNA by agarose gel assay
smiles,measurement,setting,value
Cc1cn([C@H]2C[C@H](NC(=O)CCC(=O)O)[C@@H](CO)O2)c(=O)[nH]c1=O,Ki,Ribonuclease pancreatic,918 µM
Cc1cn([C@H]2C[C@H](NC(=O)CC(=O)O)[C@@H](CO)O2)c(=O)[nH]c1=O,Ki,Ribonuclease pancreatic,380 µM
Cc1cn([C@H]2C[C@H](NC(=O)C(=O)O)[C@@H](CO)O2)c(=O)[nH]c1=O,inhibition,[1],Active
same,Activity,[2],Active
same,Ki,Ribonuclease pancreatic,132 µM
